Reference: the supplement of paper PMC12592484

Key:
Assay in all cases: drug sensitivity score (DSS2, normalised partial AUC of dose-response, 72 h CellTiter-Glo viability) (DSS (dimensionless)); higher = more sensitive (stronger growth inhibition / cytotoxicity); extreme values may be limits of the assay
[1] = test system: PF179T
Outline: (§1)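 Five doses spanning a 10,000-fold range were pre-dispensed into 384-well plates, into which low-passage primary prostate cancer-associated fibroblasts, PF179T, WPMY-1, LNCaP and 22Rv1 cells were seeded. After 72 h, CellTiter-Glo 2.0 luminescence measured viability, scaled to vehicle and positive-control wells. Higher values of the drug sensitivity score, a BREEZE-computed partial area under the fitted logistic dose–response curve divided by the log of the upper asymptote, mean greater sensitivity.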

[2] = test system: LNCAP
Outline: as §1

[3] = test system: CAF#3 (primary prostate cancer-associated fibroblasts of myCAF-like type)
Outline: as §1

[4] = test system: CAF#7 (primary prostate cancer-associated fibroblasts of myCAF-like type)
Outline: as §1

[5] = test system: CAF#4 (primary prostate cancer-associated fibroblasts of iCAF-like type)
Outline: as §1

[6] = test system: CAF#2 (primary prostate cancer-associated fibroblasts of iCAF-like type)
Outline: as §1

[7] = test system: CAF#5 (primary prostate cancer-associated fibroblasts of myCAF-like type)
Outline: as §1

[8] = test system: CAF#1 (primary prostate cancer-associated fibroblasts of myCAF-like type)
Outline: as §1

[9] = test system: 22Rv1
Outline: as §1

[10] = test system: WPMY-1
Outline: as §1

[11] = test system: CAF#6 (primary prostate cancer-associated fibroblasts of iCAF-like type)
Outline: as §1

Compound | drug sensitivity score [1] | drug sensitivity score [2] | drug sensitivity score [3] | drug sensitivity score [4] | drug sensitivity score [5] | drug sensitivity score [6] | drug sensitivity score [7] | drug sensitivity score [8] | drug sensitivity score [9] | drug sensitivity score [10] | drug sensitivity score [11]
C[C@@H](NC(=O)c1ncnc(N)c1Cl)c1ncc(C(=O)Nc2cc(C(F)(F)F)c(Cl)cn2)s1 [TAK-580] (tested concentration range 1-10000 nM) | 0 | 0.2 | 0.5 | 0.3 | 2.3 | 0 | 0 | 0 | 0 | 0.5 | 0
CC[C@H](CC#N)OC(=O)N[C@@H](C)c1cccc(NC(=O)Nc2ccc(-c3cnco3)c(OC)c2)c1 [AVN944] (tested concentration range 1-10000 nM) | 14.9 | 18.1 | 8.5 | 12.1 | 11.4 | 16.1 | 11.4 | 8.5 | 18.7 | 19 | 11.4
NCC(=O)Nc1ccc(-n2nc(C(F)(F)F)cc2-c2ccc3c(ccc4ccccc43)c2)cc1 (tested concentration range 2.5-25000 nM) | 0 | 1.4 | 0 | 0 | 0.8 | 0 | 0 | 0.7 | 0 | 4.4 | 0
Nc1ncnc2c1nc(Cl)n2[C@@H]1O[C@H](CO)[C@@H](O)[C@H]1O [8-chloro-adenosine] (tested concentration range 5-50000 nM) | 9.1 | 15.1 | 3.4 | 2 | 9.6 | 8.4 | 6.5 | 7.4 | 15 | 15.7 | 2.5
Cc1cccc(CC(=O)N2CCc3c2ccc(-c2cn(C)c4ncnc(N)c24)c3F)n1 (tested concentration range 0.2-2500 nM) | 0 | 0.7 | 0 | 0 | 0 | 0 | 0 | 0 | 0.1 | 0 | 0
COc1cc([C@@H]2c3cc4c(cc3[C@@H](O[C@@H]3O[C@@H]5CO[C@@H](c6cccs6)O[C@H]5[C@H](O)[C@H]3O)[C@H]3COC(=O)[C@H]23)OCO4)cc(OC)c1O [Teniposide] (tested concentration range 1-10000 nM) | 0 | 0 | 0 | 0 | 0 | 0 | 0 | 0 | 0 | 0 | 0
O=C(/C=C/c1cccc(S(=O)(=O)Nc2ccccc2)c1)NO [Belinostat] (tested concentration range 1-10000 nM) | 9.8 | 19.5 | 4.8 | 6.6 | 10 | 12.3 | 8.6 | 10 | 19.6 | 18.5 | 6.8
CCc1c(C(=O)C(N)=O)c2c(OCC(=O)O)cccc2n1Cc1ccccc1 [Varespladib] (tested concentration range 1-10000 nM) | 0 | 0 | 0 | 0 | 0 | 0 | 1.3 | 0 | 0 | 0 | 0
Nc1nccc(-c2c(-c3ccc(F)cc3)ncn2C2CCCCC2)n1 (tested concentration range 1-10000 nM) | 0 | 4.6 | 2.1 | 0 | 0.1 | 0.6 | 0 | 0 | 6.1 | 0 | 0
S=c1[nH]cnc2nc[nH]c12 [Mercaptopurine] (tested concentration range 1-10000 nM) | 0 | 0.2 | 0.1 | 0.1 | 2.8 | 0.1 | 0 | 0 | 2.7 | 9 | 1.4
Cc1nc2cccc(N)c2c(=O)n1C1CCC(=O)NC1=O (stereo unspecified) [Avadomide] (tested concentration range 1-10000 nM) | 0.1 | 0 | 0.4 | 0 | 2.2 | 0 | 0 | 0 | 0 | 0 | 0
CCCC(CCC)C(=O)O [Valproic acid] (tested concentration range 100-1000000 nM) | 0 | 0 | 1.2 | 0 | 0 | 0 | 0 | 0 | 0 | 0 | 0
CNC(=O)c1ccc(-c2cnc3ncc(Cc4ccc5ncccc5c4)n3n2)cc1F [Capmatinib] (tested concentration range 0.1-1000 nM) | 0.4 | 0 | 0 | 0 | 0 | 3.1 | 0 | 0 | 0 | 0.1 | 0
COCC1(CO)C(=O)C2CCN1CC2 (stereo unspecified) [Eprenetapopt] (tested concentration range 1-10000 nM) | 0 | 0 | 0 | 0.2 | 0 | 0 | 0.4 | 0.1 | 0 | 0 | 0
Cc1c(C(=O)Nc2ccc(N3C[C@@H](C)O[C@@H](C)C3)nc2)cccc1-c1ccc(OC(F)(F)F)cc1 [Sonidegib] (tested concentration range 1-10000 nM) | 0 | 4.9 | 0 | 0 | 3.2 | 1.7 | 1.5 | 0 | 2.2 | 0 | 0
CN(Cc1cnc2nc(N)nc(N)c2n1)c1ccc(C(=O)N[C@@H](CCC(=O)O)C(=O)O)cc1 [Methotrexate] (tested concentration range 0.5-5000 nM) | 0 | 16.6 | 0 | 0 | 1.1 | 0 | 0 | 0 | 0 | 17.4 | 0.8
C/C(=C\c1csc(C)n1)[C@@H]1C[C@@H]2O[C@]2(C)CCC[C@H](C)[C@H](O)[C@@H](C)C(=O)C(C)(C)[C@@H](O)CC(=O)N1 [Ixabepilone] (tested concentration range 0.1-1000 nM) | 3.2 | 4.4 | 0.1 | 0.4 | 2.9 | 4.3 | 2.5 | 2.9 | 4.3 | 4.5 | 0
CNC(=O)c1cccc(-c2ccc3c(N4CCOC[C@@H]4C)nc(N4CCOC[C@@H]4C)nc3n2)c1 [Vistusertib] (tested concentration range 1-10000 nM) | 16.2 | 19.4 | 14.8 | 14.4 | 17.9 | 15.8 | 19.6 | 17.7 | 19.9 | 13.7 | 14
COc1cccc(OCCCN)c1-c1cc(Nc2cnc(C#N)cn2)n[nH]1 [Prexasertib] (tested concentration range 1-10000 nM) | 14.5 | 24.3 | 4.9 | 5.4 | 8.7 | 16.6 | 9.1 | 8.6 | 24.4 | 29.7 | 6.8
COc1cc2c(NC3CCN(C(C)C)CC3)nc(C3CCCCC3)nc2cc1OCCCN1CCCC1 [UNC0638] (tested concentration range 1-10000 nM) | 5.2 | 6 | 7.7 | 6.6 | 0 | 0 | 0 | 0 | 7.2 | 6.1 | 6.5
O=C1CCc2c(Oc3ccc4c(c3)[C@@H]3[C@H](O4)[C@H]3c3nc4cc(C(F)(F)F)ccc4[nH]3)ccnc2N1 [Lifirafenib] (tested concentration range 1-10000 nM) | 1.3 | 5.9 | 0 | 0.7 | 2.4 | 4.2 | 2.2 | 3.4 | 6.3 | 3.7 | 0.5
Nc1nc(Nc2ccc3c(c2)CC[C@@H](N2CCCC2)CC3)nn1-c1cc2c(nn1)-c1ccccc1CCC2 [Bemcentinib] (tested concentration range 1-10000 nM) | 5 | 5.4 | 8.6 | 2.7 | 1.8 | 3.2 | 4.1 | 2.5 | 5 | 8.5 | 5.7
COc1cc(C(=O)O)ccc1NC(=O)[C@@H]1N[C@@H](CC(C)(C)C)[C@](C#N)(c2ccc(Cl)cc2F)[C@H]1c1cccc(Cl)c1F [Idasanutlin] (tested concentration range 1-10000 nM) | 16.7 | 0 | 5.1 | 10.2 | 11.5 | 13.5 | 12.5 | 12.5 | 12.7 | 1.9 | 10.6
N#CC(c1ccnc(OCc2ccc(CN3CCOCC3)cc2)n1)c1nc2ccccc2s1 (stereo unspecified) [Bentamapimod] (tested concentration range 1-10000 nM) | 0 | 5.2 | 0 | 0 | 3.4 | 2.6 | 0 | 1.7 | 1.8 | 2.8 | 0
COc1cc(NS(C)(=O)=O)ccc1Nc1c2ccccc2nc2ccccc12 [Amsacrine] (tested concentration range 1-10000 nM) | 7.7 | 17 | 3.1 | 7.1 | 2.4 | 6.7 | 2.2 | 3.2 | 10.1 | 11.1 | 3.8
Cc1cc(F)c(C(=O)Nc2cccc(-c3nncn3C(C)C)n2)cc1-n1cnc(C2CC2)c1 [Selonsertib] (tested concentration range 0.1-1000 nM) | 0 | 1.4 | 0 | 0 | 0 | 0 | 0 | 0 | 0 | 0 | 0
